In ChEMBL document CHEMBL1156140, “Synthesis and antitumor-evaluation of cyclopropyl-containing combretastatin analogs” (Bioorg Med Chem Lett, 2009):

Legend:
[1] = test system: HeLa; assay: Cytotoxicity against human HeLa cells by MTT assay; type: functional, cell-based
[2] = test system: MCF7; assay: Cytotoxicity against human MCF7 cells by MTT assay; type: functional, cell-based

SMILES | IC50 ([1]; hela) | IC50 ([2]; mcf7) | IC50 ([1]; Homo sapiens, HeLa) | IC50 ([2]; Homo sapiens, MCF7)
COc1ccc(/C=C\c2cc(OC)c(OC)c(OC)c2)cc1NC(=O)[C@@H](N)CO [OMBRABULIN] | 0.72 nM | 3.1 nM |  | 
COc1ccc(C2CC2c2cc(OC)c(OC)c(OC)c2)cc1NC(=O)[C@@H](N)CO (stereo not given in full) [listing 1 of 2 here] | 432 nM | 670 nM |  | 
COCOc1cc(C#Cc2cc(OC)c(OC)c(OC)c2)ccc1OC |  |  | 26800 nM | 25600 nM
COCOc1cc(C2CC2c2cc(OC)c(OC)c(OC)c2)ccc1OC (stereo not given) |  |  | 24000 nM | 14000 nM
COc1ccc(/C=C\c2cc(OC)c(OC)c(OC)c2)cc1NC(=O)OC(C)(C)C |  |  | 1170 nM | 3850 nM
COc1ccc(C2CC2c2cc(OC)c(OC)c(OC)c2)cc1OP(=O)(O)O (stereo not given) |  |  | 370 nM | 297 nM
COc1ccc(C2CC2c2cc(OC)c(OC)c(OC)c2)cc1NC(=O)[C@@H](N)CO (stereo not given in full) [listing 2 of 2 here] | 32 nM | 63 nM |  | 
COc1ccc([C@@H]2C[C@@H]2c2cc(OC)c(OC)c(OC)c2)cc1O |  |  | 28 nM | 102 nM
COc1ccc(/C=C\c2cc(OC)c(OC)c(OC)c2)cc1O [COMBRETASTATIN A4] |  |  | 0.51 nM | 2.4 nM
COc1ccc(C#Cc2cc(OC)c(OC)c(OC)c2)cc1N |  |  | > 30000 nM | > 30000 nM
COCOc1cc(/C=C\c2cc(OC)c(OC)c(OC)c2)ccc1OC |  |  | 197 nM | 269 nM
COc1ccc(/C=C\c2cc(OC)c(OC)c(OC)c2)cc1N |  |  | 0.53 nM | 3.5 nM
COc1ccc(/C=C\c2cc(OC)c(OC)c(OC)c2)cc1OP(=O)(OCc1ccccc1)OCc1ccccc1 |  |  | 246 nM | 1170 nM
COc1ccc(C2CC2c2cc(OC)c(OC)c(OC)c2)cc1OP(=O)(OCc1ccccc1)OCc1ccccc1 (stereo not given) |  |  | 10200 nM | 10800 nM
COc1ccc(/C=C\c2cc(OC)c(OC)c(OC)c2)cc1OP(=O)(O)O [FOSBRETABULIN DISODIUM] |  |  | 0.43 nM | 2 nM
COc1ccc(/C=C\c2cc(OC)c(OC)c(OC)c2)cc1NC(=O)[C@@H](N)CO | 3.7 nM | 25 nM |  | 
COc1ccc(C#Cc2cc(OC)c(OC)c(OC)c2)cc1O |  |  | 1540 nM | 1640 nM
COc1ccc(C2CC2c2cc(OC)c(OC)c(OC)c2)cc1N (stereo not given) |  |  | 41 nM | 212 nM
COc1ccc(C#Cc2cc(OC)c(OC)c(OC)c2)cc1NC(=O)OC(C)(C)C |  |  | > 30000 nM | > 30000 nM
COc1ccc(C2CC2c2cc(OC)c(OC)c(OC)c2)cc1NC(=O)OC(C)(C)C (stereo not given) |  |  | 10100 nM | 11800 nM
